Results published in PubChem BioAssay (NCI).
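Exposure lasted 48 hours, with cells grown in 96-well plates and compounds tested at five concentrations. GI50 marks 50% less growth. TGI: concentration producing complete growth inhibition.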

Experiments:
Experiment in all cases: NCI-60 cell line screen, 48 h
[1] = test system: LOX IMVI melanoma
[2] = test system: HS 578T breast
[3] = test system: MCF7 breast
[4] = test system: KM12 colon
[5] = test system: OVCAR-4 ovarian
[6] = test system: HT29 colon
[7] = test system: OVCAR-3 ovarian
[8] = test system: DU-145 prostate
[9] = test system: NCI-H226 lung
[10] = test system: MALME-3M melanoma
[11] = test system: CAKI-1 renal
[12] = test system: NCI-H460 lung
[13] = test system: SF-295 CNS
[14] = test system: SN12C renal
[15] = test system: HCT-116 colon
[16] = test system: A498 renal
[17] = test system: RPMI-8226 leukemia
[18] = test system: OVCAR-5 ovarian
[19] = test system: SW-620 colon
[20] = test system: NCI/ADR-RES ovarian
[21] = test system: SF-539 CNS
[22] = test system: HL-60(TB) leukemia
[23] = test system: MDA-MB-435
[24] = test system: SK-MEL-28 melanoma
[25] = test system: IGROV1 ovarian
[26] = test system: MDA-MB-231 breast
[27] = test system: MOLT-4 leukemia
[28] = test system: HCT-15 colon
[29] = test system: CCRF-CEM leukemia

Q: `CSc1ccc(C2=NN(C(C)=O)C(c3ccc(F)cc3)C2)cc1` (configuration not stated) was tested. Which TGI [1] did it give?
A: Its TGI is 23.2 µM.

Q: And the GI50 [2]?
A: Its GI50 is 20.8 µM.

Q: What about the TGI [2] of the same molecule?
A: The TGI was 49.7 µM.

Q: What about the GI50 [3] of the same molecule?
A: Its GI50 is 17.2 µM.

Q: What about the TGI [3] of the same molecule?
A: Its TGI is 41.3 µM.

Q: And the GI50 [4]?
A: The GI50 was 12.8 µM.

Q: What about the TGI [4] of the same molecule?
A: Its TGI is 36.5 µM.

Q: What about the GI50 [5] of the same molecule?
A: The GI50 was 15.9 µM.

Q: And the TGI [5]?
A: Its TGI is 37.5 µM.

Q: What about the GI50 [6] of the same molecule?
A: Its GI50 is 15.2 µM.

Q: And the TGI [6]?
A: The TGI was 46 µM.

Q: What about the GI50 [7] of the same molecule?
A: Its GI50 is 16.2 µM.

Q: And the TGI [7]?
A: The TGI was 49.5 µM.

Q: And the GI50 [8]?
A: Its GI50 is 23.8 µM.

Q: And the TGI [8]?
A: The TGI was 61.7 µM.

Q: What about the GI50 [9] of the same molecule?
A: The GI50 was 13.7 µM.

Q: What about the TGI [9] of the same molecule?
A: Its TGI is 31.5 µM.

Q: And the GI50 [10]?
A: Its GI50 is 15.8 µM.

Q: And the TGI [10]?
A: The TGI was 31.3 µM.

Q: And the GI50 [11]?
A: Its GI50 is 12.9 µM.

Q: What about the TGI [11] of the same molecule?
A: Its TGI is 42.2 µM.

Q: And the GI50 [12]?
A: Its GI50 is 15.9 µM.

Q: And the TGI [12]?
A: Its TGI is 50.7 µM.

Q: What about the GI50 [13] of the same molecule?
A: The GI50 was 16.4 µM.

Q: What about the TGI [13] of the same molecule?
A: The TGI was 36.2 µM.

Q: What about the GI50 [14] of the same molecule?
A: Its GI50 is 1.23 µM.

Q: What about the TGI [14] of the same molecule?
A: The TGI was 12.6 µM.

Q: And the GI50 [15]?
A: Its GI50 is 7.11 µM.

Q: And the TGI [15]?
A: Its TGI is 20.1 µM.

Q: What about the GI50 [16] of the same molecule?
A: Its GI50 is 12.5 µM.

Q: And the TGI [16]?
A: Its TGI is 26.8 µM.

Q: And the GI50 [17]?
A: Its GI50 is 12 µM.

Q: What about the TGI [17] of the same molecule?
A: The TGI was 32.5 µM.

Q: What about the GI50 [18] of the same molecule?
A: Its GI50 is 18.9 µM.

Q: What about the TGI [18] of the same molecule?
A: Its TGI is 43.7 µM.

Q: And the GI50 [19]?
A: Its GI50 is 17.7 µM.

Q: What about the TGI [19] of the same molecule?
A: The TGI was 40.3 µM.

Q: And the GI50 [20]?
A: The GI50 was 16.4 µM.

Q: And the TGI [20]?
A: Its TGI is 32.9 µM.

Q: What about the GI50 [21] of the same molecule?
A: The GI50 was 17.5 µM.

Q: And the TGI [21]?
A: The TGI was 35.4 µM.

Q: And the GI50 [22]?
A: The GI50 was 5.56 µM.

Q: What about the TGI [22] of the same molecule?
A: Its TGI is 23.6 µM.

Q: What about the GI50 [23] of the same molecule?
A: Its GI50 is 15 µM.

Q: What about the TGI [23] of the same molecule?
A: Its TGI is 32.4 µM.

Q: What about the GI50 [24] of the same molecule?
A: The GI50 was 17 µM.

Q: And the TGI [24]?
A: The TGI was 34.2 µM.

Q: And the GI50 [25]?
A: Its GI50 is 7.73 µM.

Q: What about the TGI [25] of the same molecule?
A: Its TGI is 34.8 µM.

Q: And the GI50 [26]?
A: The GI50 was 10.7 µM.

Q: What about the TGI [26] of the same molecule?
A: Its TGI is 28.6 µM.

Q: What about the GI50 [27] of the same molecule?
A: The GI50 was 2.36 µM.

Q: What about the TGI [27] of the same molecule?
A: Its TGI is 9.69 µM.

Q: What about the GI50 [28] of the same molecule?
A: Its GI50 is 19.9 µM.

Q: What about the TGI [28] of the same molecule?
A: Its TGI is > 100 µM.

Q: And the GI50 [29]?
A: Its GI50 is 0.617 µM.

Q: What about the TGI [29] of the same molecule?
A: Its TGI is 24.5 µM.
